Laboratory results from PubChem BioAssay (NCI).
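Cultured in 96-well plates, cells were exposed to test compound for 48 hours across five concentrations. TGI marks complete inhibition of growth.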

Key:
Assay in all cases: NCI tumour cell line growth inhibition, 48 h
TK-10 renal = test system: TK-10 renal
CCRF-CEM leukemia = test system: CCRF-CEM leukemia
DU-145 prostate = test system: DU-145 prostate
786-0 renal = test system: 786-0 renal
SNB-19 CNS = test system: SNB-19 CNS
SK-MEL-28 melanoma = test system: SK-MEL-28 melanoma
OVCAR-8 ovarian = test system: OVCAR-8 ovarian
BT-549 breast = test system: BT-549 breast
HOP-92 NSCLC = test system: HOP-92 NSCLC

Measured: TGI

O=C(/C(=C\C(=O)c1cccs1)c1ccsc1)c1ccc(Br)cc1
not listed: BT-549 breast | HOP-92 NSCLC
> 100 µM: all other assays above

CCNc1ccc2c(c1)Cc1ccccc1-2
82.4 µM: HOP-92 NSCLC
75.5 µM: BT-549 breast
> 100 µM: all other assays above

O=[N+]([O-])c1ccc2nc(-c3ccccn3)c(-c3ccccn3)nc2c1
> 100 µM: all assays above

Cn1nc2n(c1=O)CCCN2
not listed: BT-549 breast
> 100 µM: all other assays above

CC[N+](C)(CC)CCC(O)(c1ccccc1)c1ccccc1
not listed: HOP-92 NSCLC
> 100 µM: all other assays above

COc1ccc(/C=c2\[nH]c3nc(=O)c(N4CCOCC4)c(N)n3c2=O)cc1
not listed: BT-549 breast
> 100 µM: all other assays above

Cc1cc(C)c(P2C(=C(O[Si](C(C)C)(C(C)C)C(C)C)C(C)(C)C)C2(c2ccccc2)c2ccccc2)c(C)c1 (stereo not given)
> 100 µM: all assays above

CN1CCN(c2c(Cl)cc(Cl)c3[nH]c4ccccc4c(=O)c23)CC1
26.2 µM: TK-10 renal
19.7 µM: SNB-19 CNS
27.9 µM: OVCAR-8 ovarian
> 36.2 µM: CCRF-CEM leukemia
16.6 µM: DU-145 prostate
10.9 µM: HOP-92 NSCLC
26.8 µM: SK-MEL-28 melanoma
31.2 µM: BT-549 breast
> 43.3 µM: 786-0 renal

N/N=C1/C2CN3CCN(C2)CC1(c1ccc([N+](=O)[O-])cc1)C3
not listed: CCRF-CEM leukemia | HOP-92 NSCLC
> 100 µM: all other assays above

CC(=O)/C(=C/n1c(=S)[nH]c2ccccc21)C(=O)Nc1ccccc1C
not listed: CCRF-CEM leukemia
> 100 µM: all other assays above

COc1ccc(N(C)C(=O)N(C)c2ccc([N+](=O)[O-])cc2)cc1
73.3 µM: TK-10 renal
> 100 µM: all other assays above

COc1cc2nc(-c3ccc4ccccc4c3)[nH]c(=O)c2cc1OC
97.2 µM: SNB-19 CNS
not listed: TK-10 renal | SK-MEL-28 melanoma
> 100 µM: all other assays above

COC1OC(Cc2nnc(C)o2)C(OCc2ccccc2)C(OCc2ccccc2)C1OCc1ccccc1 (stereo not given)
> 100 µM: DU-145 prostate | 786-0 renal | SNB-19 CNS | HOP-92 NSCLC
52.7 µM: CCRF-CEM leukemia
83.1 µM: BT-549 breast
45.3 µM: SK-MEL-28 melanoma

Cc1ccc(C(=O)O)c(CC2Cc3c(C)cccc3C2=O)c1 (stereo not given)
> 100 µM: all assays above

C[C@@H](O)C(=O)N1[C@@H]2CC3CC[C@]2(CS1(=O)=O)C3(C)C
72.9 µM: CCRF-CEM leukemia
> 100 µM: all other assays above

CCOC(=O)C(NC(=O)N(C1=NCC(C)S1)C1CCCCC1)(OC)C(F)(F)F (stereo not given)
28.9 µM: 786-0 renal
> 100 µM: all other assays above

COc1cccc(CC(C)NCC(O)c2ccc(O)c(O)c2)c1 (stereo not given)
53.6 µM: OVCAR-8 ovarian
> 100 µM: all other assays above

C(=C\c1cccc(/C=C/c2ccccn2)n1)/c1ccccn1
40.9 µM: BT-549 breast
> 100 µM: all other assays above

O=C1CCC2(CCO1)OCCO2
not listed: HOP-92 NSCLC
> 100 µM: all other assays above

c1ccc(CCNCc2ccco2)nc1
> 100 µM: all assays above

CC1OC2=N[C@@H]1C(=O)N[C@@H](C(C)C)C1=N[C@H](C(=O)N[C@@H](C(C)C)C3=N[C@H](C(=O)N[C@@H](C(C)C)C4=N[C@H](C(=O)N[C@H]2C(C)C)C(C)O4)C(C)O3)C(C)O1 (stereo not given in full)
not listed: BT-549 breast
> 10 µM: all other assays above

CCOC(=O)c1c(N2CCCC2)ncn(-c2ccccc2)c1=S
> 100 µM: all assays above

N=C1N(S(=O)(=O)c2ccccc2)[C@@H](Cc2ccccc2)[C@H](c2ccccc2)C1(c1ccccc1)c1ccccc1
not listed: HOP-92 NSCLC
> 100 µM: all other assays above

C/C(=C\c1ccccn1)c1ccccn1
not listed: CCRF-CEM leukemia
> 100 µM: all other assays above
